Results published in patent US4119722A, “Method for control of fungi using 4-halo-5-aryl-1,2,3,-dithiazoles” (Chevron Research Company, priority 1977, dated 1978).

Tests used:
Botrytis cinerea [1] = assay: Botrytis cinerea control on detached horsebean leaves; type: in vivo; conditions: 40-ppm solution, dipped horsebean leaves, 3 to 5 days, 23.5° C
Protocol: The leaves were dipped into a 40-ppm solution of the test compound in acetone and water containing a small amount of a nonionic emulsifier, then taken out and placed in a petri plate lined with two pieces of filter paper. The leaves were allowed to dry while the filter paper was kept moist by adding water as required. The treated leaves were then inoculated with the spores of Botrytis cinerea fungus grown on potato dextrose agar. The plate was covered after inoculation and kept at 23.5° C. The filter-paper lining of the plate was kept saturated with water throughout the test. The rate of disease incidence was determined in 3 to 5 days, when the disease symptoms were fully evident on non-treated check leaves. The percentage disease control provided by the test compound was calculated as the percentage disease reduction based on the non-treated check leaves.

Erysiphe polygoni = assay: Powdery Mildew control on bean seedlings; type: in vivo; conditions: 250-ppm spray, about 10 days
Excerpt: The powdery mildew test was made using bean seedlings (var. Bountiful) with well-developed primary leaves. The pathogen was Erysiphe polygoni. The bean seedlings were sprayed with a 250-ppm solution of the test compound in an acetone-water mixture containing a nonionic emulsifer. The treated plants were inoculated one day after spray application of the test compound with the pathogen. […] The rate of infection on the leaves was made after about 10 days. The percent disease control provided by a given test compound was based on the disease reduction relative to untreated check plants.

Aspergillus niger = assay: Mycelia Inhibition; type: cell-based; conditions: 25° C., 24 hours
Protocol: (§1) The compounds of the present invention were evaluated for fungicidal effectiveness by means of a mycelial inhibition test. This test is designed to measure the fungitoxic acitvity of fungicidal chemicals in terms of their degree of inhibition of mycelium growth. Each compound to be tested was dissolved in acetone to 500 ppm concentration. Paper strips were innoculated with the particular mycelium growth by covering the paper with a potato dextrose broth culture of mycelial suspension. The innoculated papers were then placed on potato dextrose agar plates and sprayed by means of a micro sprayer with the fungicidal solution. The treated paper strips were incubated at 25° C. and data is taken after 24 hours. Fungicidal activities are measured by a zone of inhibited mycelial growth from the center of the paper strip. The effectiveness of the compounds tested for fungicidal activity is reported in Table VI in terms of the microgram/cm^2 for 99% control of the fungus.

Fusarium moniloforma = assay: Mycelia Inhibition; type: cell-based; conditions: 25° C., 24 hours
Protocol: as §1

Rhizoctonia solani = assay: Mycelia Inhibition; type: cell-based; conditions: 25° C., 24 hours
Protocol: as §1

[2] = test system: Crabgrass (Digitaria sanguinalis); assay: Post-emergent herbicidal test; type: in vivo; conditions: post-emergence, 504 h, 33 mcg/cm^2, 3 weeks, scale 0 (no phytotoxicity) to 100 (complete kill), read-out: Herbicidal Effectiveness (C)
Protocol: (§2) Post-emergent herbicidal tests with representative compounds of this invention were made using the following method.
(§3) An acetone solution of the test compound was prepared by mixing 750 mg of the compound, 220 mg of a nonionic surfactant and 25 ml of acetone. This solution was added to approximately 125 ml of water containing 156 mg of surfactant.
(§4) This test solution was uniformly sprayed on 2 similar pots of 24-day-old plants (approximately 15 to 25 plants per pot) at a dose of 33 mcg/cm^2. After the plants had dried, they were placed in a greenhouse and then watered intermittently at their bases, as needed. The plants were observed periodically for phytotoxic effects and physiological and morphological responses to the treatment. After 3 weeks, the herbicidal effectiveness of the compound was rated based on these observations. A 0-to-100 scale was used, 0 representing no phytotoxicity and 100 representing complete kill.

[3] = test system: Lambsquarter (Chenopodium album); assay: Post-emergent herbicidal test; type: in vivo; conditions: post-emergence, 504 h, 33 mcg/cm^2, 3 weeks, scale 0 (no phytotoxicity) to 100 (complete kill), read-out: Herbicidal Effectiveness (P)
Protocol: as §2, §3, §4

[4] = test system: Mustard (Brassica arvensis); assay: Post-emergent herbicidal test; type: in vivo; conditions: post-emergence, 504 h, 33 mcg/cm^2, 3 weeks, scale 0 (no phytotoxicity) to 100 (complete kill), read-out: Herbicidal Effectiveness (L)
Protocol: as §2, §3, §4

[5] = test system: Pigweed (Amaranthus retroflexus); assay: Post-emergent herbicidal test; type: in vivo; conditions: post-emergence, 504 h, 33 mcg/cm^2, 3 weeks, scale 0 (no phytotoxicity) to 100 (complete kill), read-out: Herbicidal Effectiveness
Protocol: as §2, §3, §4

[6] = test system: Watergrass (Echinochloa Crusgalli); assay: Post-emergent herbicidal test; type: in vivo; conditions: Echinochloa crus-galli, post-emergence, 504 h, 33 mcg/cm^2, 3 weeks, scale 0 (no phytotoxicity) to 100 (complete kill), read-out: Herbicidal Effectiveness (W)
Protocol: as §2, §3, §4

Wild Oats (Avena fatua) = assay: Post-emergent herbicidal test; type: in vivo; conditions: post-emergence, 504 h, 33 mcg/cm^2, 3 weeks, scale 0 (no phytotoxicity) to 100 (complete kill), read-out: Herbicidal Effectiveness (O)
Protocol: as §2, §3, §4

[7] = test system: two spotted-mites (Tetramuchus urticae); assay: Mite control test, adult mites; type: in vivo; conditions: 40-ppm leaf dip, adult mortality one day after treatment; 1440 min
Protocol: (§5) Compounds of the invention were tested for the control mites and mite eggs by the following procedure. Pinto bean leaves were invested with two spotted-mites (Tetramuchus urticae). The mites were then allowed to lay eggs on the leaves. After 48 hours, the leaves were dipped into a water/acetone solution containing a small amount of a non-ionic surfactant and 40-ppm of the test compound. The treated leaves were then maintained at 85° F. One day after treatment, the mortality of adult mites was determined, and 7 days after treatment, the egg mortality (non-hatching eggs) was determined.

[8] = test system: mite eggs (Tetramuchus urticae); assay: Mite control test, mite eggs; type: in vivo; conditions: 40-ppm leaf dip, egg mortality (non-hatching eggs) 7 days after treatment
Protocol: as §5

Phytophthora infestans = assay: whole plant or invertebrate; type: in vivo; conditions: in Solanum lycopersicum, 168 h, read-out: Tomato Late Blight, % Control
Alternaria solani = assay: Tomato Early Blight control; type: in vivo; conditions: 250-ppm spray, tomato seedlings, inoculated 1 day later
Protocol: Compounds of the invention were tested for the control of the Tomato Early Blight organism, Alternaria solani conidia. […] The tomato plans were sprayed with a 250-ppm solution of the test compound in an acetone-and-water solution containing a small amount of a non-ionic emulsifier. […] Percent disease control was based on the percent disease development on untreated check plants.

Botrytis cinerea [9] = assay: Mycelia Inhibition; type: cell-based; conditions: 25° C., 24 hours
Protocol: as §1

Compound | percentage disease control (Botrytis cinerea) (Botrytis cinerea [1]) [%] | Powdery Mildew % Control (Erysiphe polygoni) [%] | Mycelia Inhibition, for 99% control (A) (Aspergillus niger) [micrograms/cm^2] | Mycelia Inhibition, for 99% control (F) (Fusarium moniloforma) [micrograms/cm^2] | Mycelia Inhibition, for 99% control (R) (Rhizoctonia solani) [micrograms/cm^2] | pest or weed control at 33 µg/cm2 [2] [%] | pest or weed control at 33 µg/cm2 [3] [%] | pest or weed control at 33 µg/cm2 [4] [%] | pest or weed control at 33 µg/cm2 [5] [%] | pest or weed control at 33 µg/cm2 [6] [%] | pest or weed control at 33 µg/cm2 (Wild Oats (Avena fatua)) [%] | Mite Control, % [7] [%] | Mite Eggs Control, % [8] [%] | pest or weed control at 250 µg/mL (Phytophthora infestans) [%] | Tomato Early Blight, % Control (Alternaria solani) [%] | Mycelia Inhibition, for 99% control (B) (Botrytis cinerea [9]) [micrograms/cm^2]
Cc1cc(Cl)ccc1N=c1ssnc1Cl [Compound 4, 4-chloro-5-(2-methyl-4-chlorophenylimino)-1,2,3-dithiazole] | 92 | 100 | > 1.7 | > 1.7 | 0.63 | 20 | 85 | 70 | 70 | 30 | 20 | 94 | 100 |  |  | 
Cc1c(Cl)cccc1N=c1ssnc1Cl [Compound 21] |  | 100 | > 1.7 | > 1.7 | 1.1 | 0 | 20 | 45 | 50 | 15 | 0 | 90 | 99 | 63 | 44 | 1.3
